Where a name gives a salt, the structure may show the parent alone.
Tests used:
[1] = target: T1, human neuropeptide Y5 receptor (Homo sapiens, UniProt Q15761); experiment: NPY5 HTS centrifugation assay: competition with 125I-PYY for binding to membranes of NPY5-transfected HEK293 cells
T1 construct: expressed in transfected cells; membranes
T1 sequence (Q15761 1-445): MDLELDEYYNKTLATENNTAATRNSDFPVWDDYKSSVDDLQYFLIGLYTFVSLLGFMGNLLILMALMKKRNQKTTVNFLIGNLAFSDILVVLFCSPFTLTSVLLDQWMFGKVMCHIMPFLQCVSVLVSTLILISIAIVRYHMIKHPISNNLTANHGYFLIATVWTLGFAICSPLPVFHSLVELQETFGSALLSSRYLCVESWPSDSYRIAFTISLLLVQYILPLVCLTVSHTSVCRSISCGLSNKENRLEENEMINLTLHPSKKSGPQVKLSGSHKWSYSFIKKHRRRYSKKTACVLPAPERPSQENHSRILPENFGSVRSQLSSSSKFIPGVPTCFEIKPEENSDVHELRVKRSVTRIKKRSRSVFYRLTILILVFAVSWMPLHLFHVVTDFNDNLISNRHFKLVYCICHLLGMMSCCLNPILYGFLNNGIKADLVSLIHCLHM
Method: NPY5 HTS Centrifugation Assay
The compounds described in this invention were evaluated for binding to the human neuropeptide Y5 receptor.
The human NPY5 receptor cDNA (Genbank Accession number U66275) was inserted into the vector pClneo (Invitrogen) and transfected into human embryonic kidney cells (HEK-293) via calcium phosphate method (Cullen 1987). Stably transfected cells were selected with G-418 (600 μg/mL). Stably transfected cells served as the source for the membranes for the NPY5 receptor binding assay.
NPY5-transfected HEK293 cells were grown to confluence in 150 cm^2 culture dishes. Cells were washed once with phosphate-buffered saline (Gibco Cat# 14040-133). Cells were then incubated in phosphate-buffered saline without calcium and without magnesium, supplemented with 2 mM EDTA. Cells were incubated for 10 minutes at room temperature and the cells were collected by repetitive pipeting. Cells were formed into pellets and then frozen at −80° C. until needed. Frozen pellets were homogenized with a polytron at full speed for 12 seconds in a homogenization buffer (20 mM Tris HCl, 5 mM EDTA, pH 7.4). Homogenates were centrifuged for 5 minutes at 4° C. at 200 g. Supernatants were transferred to corex tubes and centrifuged for 25 minutes at 28,000 g. Pellets were re-suspended in Binding (20 mM HEPES, 10 mM NaCl, 0.22 mM KH2PO4, 1.3 mM CaCl2, 0.8 mM MgSO4, pH 7.4). Membranes were kept on ice until use.
A competition binding assay, known to those skilled in the art, was used in which compounds of formula A compete with ^125I-PYY for binding to cell membranes. In simple terms, the less ^125I-PYY bound to the membranes implies that a compound is a good inhibitor (competitor). Bound ^125I-PYY is determined by centrifugation of membranes, aspirating supernatant, washing away residual ^125I-PYY and subsequently counting the bound sample in a gcounter.
Compounds to be tested were prepared as 10× stocks in binding buffer and added first to assay tubes (RIA vials, Sarstedt). Twenty (20) μL of each 10× compound stock is pipeted into vials and 80 μL of ^125I-PYY (NEN catalog number NEX240), which has been diluted to a concentration of 200 pM in 0.25% BSA in binding buffer, is added to the compound tubes (final concentration of ^125I-PYY is 80 pM). To each tube is added 100 μL of membranes and the mixture is agitated by pipeting 2 times. Samples are incubated for 1 hr at room temperature. Aluminum cast plates (Sarstedt) containing the vials are then centrifuged 10 minutes at 3200 rpm in a Sorvall RT6000. Supernatant is then aspirated. To each vial 400 μL PBS is added and this is then aspirated again. Vials are then put in carrier polypropylene 12×75 tube and counted in gamma counter (Packard). Non-specific binding is determined in the presence of 300 nM NPY. Percent inhibition of ^125I-PYY binding is calculated by subtracting non-specific binding from the test samples (compound (I)), taking these counts and dividing by total binding, and multiplying by 100. Inhibitory concentration values (IC50) of compounds that show appreciable inhibition of ^125I-PYY binding are calculated by obtaining percent inhibition of ^125I-PYY binding values at different concentrations of the test compound, and using a graphing program such as GraphPad Prism (San Diego, Calif.) to calculate the concentration of test compound that inhibits fifty-percent of ^125I-PYY binding (Table 4).

Food-Deprived Rats = experiment: Rodent feeding model: measurement of food intake in food-deprived rats; assay type: in vivo, Male Long-Evans rats; settings: 30 mg/kg i.p.
Source text: Measurement of Food Intake in Food-Deprived Rats
Male Long-Evans rats (180-200 grams) are housed individually and are maintained on once-a-day feeding schedule (i.e., 10 a.m. until 4 p.m.) for five days following quarantine to allow the animals to acclimate to feeding on powdered chow (#5002 PMI Certified Rodent Meal) during the allotted time. The chow is made available in a open jar, anchored in the cage by a wire, with a metal follower covering the food to minimize spillage. Water is available ad-libitum.
Animals are fasted for 18 hours prior to testing. At the end of the fasting period, animal are administered either compounds of the invention or vehicle. Vehicle and test compounds are administered either orally (5 mL/kg) 60 minutes prior to the experiment, or 30 minutes prior when given subcutaneously (1 mL/kg) or intraperitoneally (1 mL/kg). Compounds of the invention are administered orally as a suspension in aqueous 0.5% methylcellulose-0.4% Tween 80, or intraperitoneally as a solution or suspension in PEG 200; compound concentrations typically range from 1 mg/kg to 100 mg/kg, preferably from 10-30 mg/kg. Food intake is measured at 2, 4, and 6 hours after administration by weighing the special jar containing the food before the experiment and at the specified times. Upon completion of the experiment, all animals are given a one-week washout period before retesting.
Percent reduction of food consumption is calculated subtracting the grams of food consumed by the treated group from the grams of food consumed by the control group divided by the grams of food consumed by the control group, multiplied by 100. A negative value indicates a reduction in food consumption and a positive value indicates an increase in food consumption. [formula]

- inhibition at 0.3 µM ([1]; % inhibition of 125I-PYY binding at 300 nM compound, read-out: % Inh @ 300 nM): 74%
- inhibition at 3 µM ([1]; % inhibition of 125I-PYY binding at 3 uM compound): 97%
SMILES: O=S(=O)(NC[C@H]1CC[C@H](CNC2=N[C@@H]3CCc4cc(O)ccc4[C@@H]3C2)CC1)c1ccccc1 [Compound 10, N-[[trans-4-[[(cis-3a,4,5,9b-ttrahydro-7-hydroxy-1H-benz[e]indol-2-yl)amino]methyl]cyclohexyl]methyl]benzenesulfonamide hydrochloride]
- Food Consumption (avg. grams) 0-2 h (Food-Deprived Rats; 0-2 h, 18 h fasted rats): 4.38 g
- Food Consumption 0-2 h (% chg.) (Food-Deprived Rats; 0-2 h, change vs vehicle, negative = reduction): (−57%)
- Food Consumption (avg. grams) 0-4 h (Food-Deprived Rats; 0-4 h, 18 h fasted rats): 6.43 g
- Food Consumption 0-4 h (% chg.) (Food-Deprived Rats; 0-4 h, change vs vehicle, negative = reduction): (−53%)
- Food Consumption (avg. grams) 0-6 h (Food-Deprived Rats; 0-6 h, 18 h fasted rats): 10.75 g
- Food Consumption 0-6 h (% chg.) (Food-Deprived Rats; 0-6 h, change vs vehicle, negative = reduction): (−49%)
- Food Consumption (avg. grams) 2-6 h (Food-Deprived Rats; 2-6 h, 18 h fasted rats): 6.37 g
- Food Consumption 2-6 h (% chg.) (Food-Deprived Rats; 2-6 h, change vs vehicle, negative = reduction): (−41%)

— US6841552B1, “3a,4,5,9b-tetrahydro-1H-benz[e]indol-2-yl amine-derived neuropeptide Y receptors ligands useful in the treatment of obesity and other disorders” (Ortho-McNeil Pharmaceutical, Inc., priority 1999, dated 2005)
